US9943528B2 (MAPREG, priority 2016, dated 2018)

Tests used:
[1] = tested on: Noradrenergic α1; assay: CNS receptor binding assay, α1; conditions: MAP4343 10 μM; [3H] prazosin; rat cerebral cortex
Description: (§1) MAP4343 has been screened for in vitro affinity to 80 different CNS neurotransmitters receptors using various validated binding assays.

[2] = tested on: Noradrenergic α2; assay: CNS receptor binding assay, α2; conditions: MAP4343 10 μM; [3H] RX 821002; rat cerebral cortex
Description: as §1

[3] = tested on: NMDA PCP site; assay: CNS receptor binding assay, NMDA PCP site; conditions: MAP4343 10 μM; [3H] TCP; rat cerebral cortex
Description: as §1

[4] = tested on: Wistar Kyoto (WKY) rats; assay: Novel object recognition (NOR) test in WKY rats, chronic administration; format: in vivo, rat; conditions: MAP4343 15 mg/kg, s.c., 24 days
Method: (§2) Wistar Kyoto (WKY) rats are considered as a model of treatment-resistant depression, while Wistar (WI) rats are used as control strain of WKY rats. During this experiment both WI and WKY rats were administered with MAP4343 (15 mg/Kg), subcutaneously (s.c.) for 24 days. Behavioral tests were performed at during the last week of treatment, and rats were finally sacrificed for addressing neurogenesis in Gyrus dentate of hippocampus using histological experiments. Organization of this protocol is depicted in FIG. 7.
(§3) MAP4343 was diluted in sesame oil, and then administered subcutaneously (s.c.) at the dose of 15 mg/kg during 24 days. The vehicle group received only the sesame oil (1 ml/kg) in the similar conditions.
The NOR task is a test of recognition memory based on the spontaneous preference of rats for novelty. The applied procedure was based on that previously described by Ennaceur and Delacour (1988). NOR task was performed at D21 of the treatment period (see FIG. 7). In a first session (habituation, 5 min), each rat was familiarized with two identical objects placed in the border of the open-field area (70×100×70 cm). In a second session performed 1 h after (novel object recognition, 5 min), one of the two familiar objects was replaced by a novel object. […] Results are given as exploratory time for the novel object and the total exploratory time.

[5] = tested on: Wistar Kyoto (WKY) rats; assay: Neurogenesis in dentate gyrus of hippocampus (BrdU/NeuN) in WKY rats; format: in vivo, rat; conditions: chronic MAP4343 15 mg/kg, s.c., 24 days, FIG. 9C
Method: as §2, §3
Injections of BrdU were performed twice at D0, 24 and 22 hours before the beginning of treatment. All animals were equally given two injections of BrdU (75 mg/kg, dissolved in saline solution intraperitoneally), at two hours pulse-chase interval. […]
Neurogenesis in each dentate gyrus was manually measured by quantification of positive cells co-labelled with BrdU/NeuN, using a microscope equipped with epifluorescence (Zeiss Axiovert 200, objective 40×). Total number of new neurons in the entire dentate gyrus was estimated by multiplying the measured number by 8 (that corresponds to the number of unused sections separating each coronal sections used to count the newly-formed neurons). […]

[6] = tested on: tree shrews exposed to chronic psychosocial stress; conditions: 4-week daily administration; cited from earlier work
[7] = tested on: PC12 cells; conditions: cited from earlier work

## CO[C@H]1CC[C@@]2(C)C(=CC[C@H]3[C@@H]4CC[C@H](C(C)=O)[C@@]4(C)CC[C@@H]32)C1 [MAP4343, 3β-methoxy-pregna-5-ene-20-one]
[1]
  % Inhibition of control specific binding: 4%
[2]
  % Inhibition of control specific binding: 7%
[3]
  % Inhibition of control specific binding: −10%
[4]; FIG. 8B
  time spent with the novel object in NOR, change vs WKY receiving only vehicle: +58%
[4]; FIG. 8C
  total exploratory time in NOR, change vs WKY receiving only vehicle: +41%
[5]
  number of newly-formed neurons (BrdU and Neu-N) in dentate gyrus, change vs WKY receiving only vehicle: +71%
[6]
  hormone hypersecretion, hypothermia and sleep disturbances: prevent hormone hypersecretion, hypothermia and sleep disturbances
  stress-triggered avoidance behavior: abolish stress-triggered avoidance behavior
[7]
  neurite extension: enhance neurite extension
